Entries after “also recorded” stand apart in the source; their conditions may differ. Read-outs that look alike come from different tables or passages of the source.
Columns and labels:
Lmna^H222P/H222P mice [1] = details: cited from earlier work
Lmna^H222P/H222P mice [2] = assay: Forelimb grip fatigue index; format: in vivo; details: 6 mg/kg/day
HT-29 cells = assay: Anti-proliferative activity on HT-29 cells; format: cell-based; details: HT-29 anti-proliferative IC50
Lmna^H222P/H222P mice [3] = assay: Quantitative real-time RT-PCR of Nppa and Myl7 mRNA in hearts; format: in vivo
[4] = system: ERK1/2 phosphorylation in HEK-293 cells; assay: Phosphorylated ERK1/2 immunoblot in cultured HEK-293 cells; format: cell-based; details: 1 µM to 0.001 µM, 24 h
ERK1/2 phosphorylation = assay: Phosphorylated ERK1/2 relative to total ERK1/2 in tissues of treated mice; format: in vivo, Lmna^H222P/H222P mice; details: six weeks
Lmna^H222P/H222P mice [5] = format: in vivo; details: 6 weeks
Lmna^H222P/H222P mice [6] = assay: Serum creatine phosphokinase activity; format: in vivo
Lmna^H222P/H222P mice [7] = format: in vivo; details: for Amylase (serum): 6 weeks, mean ± standard error, n = 10
Lmna^H222P/H222P mice [8] = assay: Cardiac fibrosis score; format: in vivo
Lmna^H222P/H222P mice [9] = assay: Histology of quadriceps muscle; format: in vivo; details: placebo 3 of 6

With `COc1cccc(-c2cc(=O)c3ccccc3o2)c1N` [PD98059] as the molecule, how does the “effect on left ventricular and skeletal muscle function and survival” value (Lmna^H222P/H222P mice [1]) read?
The value was “beneficial effect on left ventricular and skeletal muscle function and prolongs survivial”.

For `O=S1(=O)Nc2c(cc(F)c(F)c2Nc2ccc(I)cc2F)OCC(O)C(O)CC12CC2` (stereo not drawn) [compound 8], which “forelimb grip fatigue index compared to placebo” value (Lmna^H222P/H222P mice [2]) is on record?
Its value is “significantly reduced”.

And the “potency of fast moving isomer compared to the slow moving one” value (HT-29 cells)?
Its value is “approximately 25 fold”.

What about the “cardiac Nppa mRNA compared to placebo” value (Lmna^H222P/H222P mice [3]; 3 mg/kg/day) of the same molecule?
The value was “significantly reduced”.

What about the “cardiac Myl7 mRNA compared to placebo” value (Lmna^H222P/H222P mice [3]; 6 mg/kg/day) of the same molecule?
The value was “significantly decreased”.

What about the “cardiac Nppa mRNA compared to placebo” value (Lmna^H222P/H222P mice [3]; 6 mg/kg/day) of the same molecule?
The value was “significantly reduced”.

What about the ERK1/2 phosphorylation [4] of the same molecule?
Its ERK1/2 phosphorylation is “essentially abolished ERK1/2 phosphorylation”.

What about the “phosphorylated ERK1/2 relative to total ERK1/2 in heart” value (ERK1/2 phosphorylation; 3 mg/kg/day oral gavage) of the same molecule?
Its value is “significant decreases”.

What about the “phosphorylated ERK1/2 relative to total ERK1/2 in liver” value (ERK1/2 phosphorylation; 3 mg/kg/day oral gavage) of the same molecule?
The value was “significant decreases”.

And the “phosphorylated ERK1/2 relative to total ERK1/2 in quadriceps muscle” value (ERK1/2 phosphorylation; 3 mg/kg/day oral gavage)?
Its value is “only the higher dose produced a significant decrease”.

What about the “phosphorylated ERK1/2 relative to total ERK1/2 in heart” value (ERK1/2 phosphorylation; 6 mg/kg/day oral gavage) of the same molecule?
The value was “significant decreases”.

What about the “phosphorylated ERK1/2 relative to total ERK1/2 in liver” value (ERK1/2 phosphorylation; 6 mg/kg/day oral gavage) of the same molecule?
Its value is “significant decreases”.

And the “phosphorylated ERK1/2 relative to total ERK1/2 in quadriceps muscle” value (ERK1/2 phosphorylation; 6 mg/kg/day oral gavage)?
The value was “significant decrease”.

What about the “Kidney histology, individual sample” value (Lmna^H222P/H222P mice [5]; 3 mg/kg/day) of the same molecule?
Its value is “Normal”.

And the “Liver histology, individual sample” value (Lmna^H222P/H222P mice [5]; 3 mg/kg/day)?
The value was “Normal; also recorded: Slightly greater vacuolation in some zones; similar to 7606 but milder; could be preparation artifact”.

And the “Spleen histology, individual sample” value (Lmna^H222P/H222P mice [5]; 3 mg/kg/day)?
The value was “Mildly increased number of hemosiderin-laden macrophages suggestive of old hemorrhage Somewhere; also recorded: Normal (hemosiderin-laden macrophages present but at approximately normal levels)”.

What about the “Kidney histology, individual sample” value (Lmna^H222P/H222P mice [5]; 6 mg/kg/day) of the same molecule?
The value was “Some lymphocytic inflammation around the renal pelvis (around the ureter) and occasional medium-sized arteries; more inflammation than 7623 and 7622; also recorded: Mostly normal but some mild lymphocytic inflammation around small arteries with occasional hemosiderin-laden macrophages”.

What about the “Liver histology, individual sample” value (Lmna^H222P/H222P mice [5]; 6 mg/kg/day) of the same molecule?
Its value is “Occasional hemosiderin laden macrophages. Some portal triads have mild lymphocytic inflammation; significance uncertain; also recorded: Normal; also recorded: Some intracellular vacuolation in some zones; similar to 7612; could be preparation artifact”.

And the “Spleen histology, individual sample” value (Lmna^H222P/H222P mice [5]; 6 mg/kg/day)?
Its value is “Area of necrosis consistent with splenic infarct; moderately increased number of hemosiderin-laden macrophages suggestive of hemorrhage old somewhere; also recorded: Normal”.

What about the “liver, kidney or spleen histopathology, overall” value (Lmna^H222P/H222P mice [5]; 3 or 6 mg/kg/day) of the same molecule?
Its value is “no consistent or specific abnormalities in liver, kidney or spleen histopathology”.

What about the “serum creatine phosphokinase activity compared to placebo” value (Lmna^H222P/H222P mice [6]; 3 mg/kg/day) of the same molecule?
Its value is “but not 3 mg/kg/day of 8 significantly reduced”.

What about the “serum creatine phosphokinase activity compared to placebo” value (Lmna^H222P/H222P mice [6]; 6 mg/kg/day) of the same molecule?
Its value is “significantly reduced”.

And the “Amylase (serum)” value (Lmna^H222P/H222P mice [7]; 3 mg/kg/day)?
The value was 1,372 ± 282.9 U/L.

And the “Amylase (serum)” value (Lmna^H222P/H222P mice [7]; 6 mg/kg/day)?
Its value is 1,086 ± 40.18 U/L.

What about the “liver, kidney or pancreatic toxicity by serum chemistry” value (Lmna^H222P/H222P mice [7]; 6 weeks of treatment at a dose up to 6 mg/kg/day) of the same molecule?
The value was “did not produce significant liver, kidney or pancreatic toxicity”.

What about the “cardiac fibrosis score (grade 0-4) compared to placebo” value (Lmna^H222P/H222P mice [8]; 3 mg/kg/day) of the same molecule?
The value was “statistically significant decreases in fibrosis”.

What about the “cardiac fibrosis score (grade 0-4) compared to placebo” value (Lmna^H222P/H222P mice [8]; 6 mg/kg/day) of the same molecule?
The value was “statistically significant decreases in fibrosis”.

What about the “quadriceps samples with internally nucleated fibers” value (Lmna^H222P/H222P mice [9]; 3 mg/kg/day) of the same molecule?
The value was 1 of 5.

What about the “quadriceps samples with internally nucleated fibers” value (Lmna^H222P/H222P mice [9]; 6 mg/kg/day) of the same molecule?
Its value is 0 of 5.

Which “effect on left ventricular and skeletal muscle function and survival” value (Lmna^H222P/H222P mice [1]) does the source give for `Cn1cnc2c(F)c(Nc3ccc(Br)cc3Cl)c(C(=O)NOCCO)cc21` [selumetinib] here?
Its value is “beneficial effect on left ventricular and skeletal muscle function and prolongs survivial”.

Reference: article PMC5291759 (Bioorganic & medicinal chemistry, 2016)
